Results from patent publication US9809858B2, “O-glycan pathway ovarian cancer signature” (H. LEE MOFFITT CANCER CENTER AND RESEARCH INSTITUTE, INC., priority 2012, dated 2017).

Columns and labels:
FUOV1 OVCA cell line = assay: CellTiter-Blue cell viability assay, FUOV1; assay type: cell-based; settings: Homo sapiens; FUOV1 cells, 72 hours, growth/viability
Source text: (§1) OVCA cell lines were obtained from the American Type Culture Collection (Manassas, Va.; CAOV3, OV90, OVCAR3, SKOV3), from the European Collection of Cell Cultures (Salisbury, UK; A2780CP, A2780S), from Kyoto University (Kyoto, Japan; CHI, CHIcisR, M41, M41CSR, Tyknu, and TyknuCisR), or as kind gifts (A2008, C13, CAOV2, HeyA8, IGR-OV1, IMCC3, IMCC5, MCAS, OV2008, OVCA420, OVCA429, OVCA432, OVCA433, FUOV1, PEO1, PEO4, SK-OV-6, T8, TOV-112D, TOV-21-G, Dov13, BG1, Ovary1847, OVCAR10, OVCAR8, OVCAR5, OVCAR4, OVCAR2, SK-OV-4). Cell lines were maintained in RPMI 1640 medium (Invitrogen, Carlsbad, Calif.) supplemented with 10% fetal bovine serum (Fisher Scientific, Pittsburgh, Pa.), 1% sodium pyruvate, 1% penicillin/streptomycin (Cellgro, Manassas, Va.), and 1% nonessential amino acids (HyClone, Hudson, N.H.). Mycoplasma testing was performed every 6 months, in accordance with the manufacturer's protocol (Lonza, Rockland, Me.).
(§2) Drug activity was evaluated using a high-throughput CellTiter-Blue® cell viability assay. […] Fluorescence was read at 579-nm excitation/584-nm emission using a Synergy™ 4 microplate reader (Bio-Tek Instruments, Inc., Winooski, Vt.). IC50 values were determined using a sigmoidal equilibrium model fit (XLfit 5.2, ID Business Solutions Ltd.). […]

MCAS OVCA cell line = assay: CellTiter-Blue cell viability assay, MCAS; assay type: cell-based; settings: Homo sapiens; MCAS cells, 72 hours, growth/viability
Source text: as §1, §2

OVCA432 OVCA cell line = assay: CellTiter-Blue cell viability assay, OVCA432; assay type: cell-based; settings: Homo sapiens; OVCA432 cells, 72 hours, growth/viability
Source text: as §1, §2

A2780CP OVCA cell line = assay: CellTiter-Blue cell viability assay, A2780CP; assay type: cell-based; settings: Homo sapiens, A2780C/P; A2780CP cells, 72 hours, growth/viability
Source text: as §1, §2

M41CSR OVCA cell line = assay: CellTiter-Blue cell viability assay, M41CSR; assay type: cell-based; settings: Homo sapiens; M41CSR cells, 72 hours, growth/viability
Source text: as §1, §2

Ovary1847 OVCA cell line = assay: CellTiter-Blue cell viability assay, Ovary1847; assay type: cell-based; settings: Homo sapiens; Ovary1847 cells, 72 hours, growth/viability
Source text: as §1, §2

IGR-OV1 OVCA cell line = assay: CellTiter-Blue cell viability assay, IGR-OV1; assay type: cell-based; settings: Homo sapiens, IGROV-1; IGR-OV1 cells, 72 hours, growth/viability
Source text: as §1, §2

Dov13 OVCA cell line = assay: CellTiter-Blue cell viability assay, Dov13; assay type: cell-based; settings: Homo sapiens; Dov13 cells, 72 hours, growth/viability
Source text: as §1, §2

IMCC3 OVCA cell line = assay: CellTiter-Blue cell viability assay, IMCC3; assay type: cell-based; settings: Homo sapiens; IMCC3 cells, 72 hours, growth/viability
Source text: as §1, §2

C13 OVCA cell line = assay: CellTiter-Blue cell viability assay, C13; assay type: cell-based; settings: Homo sapiens; C13 cells, 72 hours, growth/viability
Source text: as §1, §2

OVCAR5 OVCA cell line = assay: CellTiter-Blue cell viability assay, OVCAR5; assay type: cell-based; settings: Homo sapiens, OVCAR-5; OVCAR5 cells, 72 hours, growth/viability
Source text: as §1, §2

TOV-112D OVCA cell line = assay: CellTiter-Blue cell viability assay, TOV-112D; assay type: cell-based; settings: Homo sapiens, TOV112D; TOV-112D cells, 72 hours, growth/viability
Source text: as §1, §2

OVCA433 OVCA cell line = assay: CellTiter-Blue cell viability assay, OVCA433; assay type: cell-based; settings: Homo sapiens; OVCA433 cells, 72 hours, growth/viability
Source text: as §1, §2

HeyA8 OVCA cell line = assay: CellTiter-Blue cell viability assay, HeyA8; assay type: cell-based; settings: Homo sapiens, HEY A8; HeyA8 cells, 72 hours, growth/viability
Source text: as §1, §2

CHIcisR OVCA cell line = assay: CellTiter-Blue cell viability assay, CHIcisR; assay type: cell-based; settings: Homo sapiens; CHIcisR cells, 72 hours, growth/viability
Source text: as §1, §2

T8 OVCA cell line = assay: CellTiter-Blue cell viability assay, T8; assay type: cell-based; settings: Homo sapiens; T8 cells, 72 hours, growth/viability
Source text: as §1, §2

OVCA420 OVCA cell line = assay: CellTiter-Blue cell viability assay, OVCA420; assay type: cell-based; settings: Homo sapiens, OVCA 420; OVCA420 cells, 72 hours, growth/viability
Source text: as §1, §2

A2008 OVCA cell line = assay: CellTiter-Blue cell viability assay, A2008; assay type: cell-based; settings: Homo sapiens; A2008 cells, 72 hours, growth/viability
Source text: as §1, §2

OVCAR2 OVCA cell line = assay: CellTiter-Blue cell viability assay, OVCAR2; assay type: cell-based; settings: Homo sapiens; OVCAR2 cells, 72 hours, growth/viability
Source text: as §1, §2

TyknuCisR OVCA cell line = assay: CellTiter-Blue cell viability assay, TyknuCisR; assay type: cell-based; settings: Homo sapiens; TyknuCisR cells, 72 hours, growth/viability
Source text: as §1, §2

TOV-21G OVCA cell line = assay: CellTiter-Blue cell viability assay, TOV-21G; assay type: cell-based; settings: Homo sapiens, TOV21G; TOV-21G cells, 72 hours, growth/viability
Source text: as §1, §2

CAOV3 OVCA cell line = assay: CellTiter-Blue cell viability assay, CAOV3; assay type: cell-based; settings: Homo sapiens, Caov-3; CAOV3 cells, 72 hours, growth/viability
Source text: as §1, §2

PEO1 OVCA cell line = assay: CellTiter-Blue cell viability assay, PEO1; assay type: cell-based; settings: Homo sapiens; PEO1 cells, 72 hours, growth/viability
Source text: as §1, §2

OV90 OVCA cell line = assay: CellTiter-Blue cell viability assay, OV90; assay type: cell-based; settings: Homo sapiens, OV-90; OV90 cells, 72 hours, growth/viability
Source text: as §1, §2

SK-OV-4 OVCA cell line = assay: CellTiter-Blue cell viability assay, SK-OV-4; assay type: cell-based; settings: Homo sapiens; SK-OV-4 cells, 72 hours, growth/viability
Source text: as §1, §2

OVCAR8 OVCA cell line = assay: CellTiter-Blue cell viability assay, OVCAR8; assay type: cell-based; settings: Homo sapiens, OVCAR-8; OVCAR8 cells, 72 hours, growth/viability
Source text: as §1, §2

SK-OV-3 OVCA cell line = assay: CellTiter-Blue cell viability assay, SK-OV-3; assay type: cell-based; settings: Homo sapiens; SK-OV-3 cells, 72 hours, growth/viability
Source text: as §1, §2

IMCC5 OVCA cell line = assay: CellTiter-Blue cell viability assay, IMCC5; assay type: cell-based; settings: Homo sapiens; IMCC5 cells, 72 hours, growth/viability
Source text: as §1, §2

SK-OV-6 OVCA cell line = assay: CellTiter-Blue cell viability assay, SK-OV-6; assay type: cell-based; settings: Homo sapiens; SK-OV-6 cells, 72 hours, growth/viability
Source text: as §1, §2

BG1 OVCA cell line = assay: CellTiter-Blue cell viability assay, BG1; assay type: cell-based; settings: Homo sapiens, BG-1; BG1 cells, 72 hours, growth/viability
Source text: as §1, §2

A2780S OVCA cell line = assay: CellTiter-Blue cell viability assay, A2780S; assay type: cell-based; settings: Homo sapiens; A2780S cells, 72 hours, growth/viability
Source text: as §1, §2

OVCAR4 OVCA cell line = assay: CellTiter-Blue cell viability assay, OVCAR4; assay type: cell-based; settings: Homo sapiens, OVCAR-4; OVCAR4 cells, 72 hours, growth/viability
Source text: as §1, §2

OV2008 OVCA cell line = assay: CellTiter-Blue cell viability assay, OV2008; assay type: cell-based; settings: Homo sapiens; OV2008 cells, 72 hours, growth/viability
Source text: as §1, §2

[1] = system: patients with recurrent OVCA; settings: 800-1250 mg/m^2/week, Phase II and III studies; cited from earlier work
M41 OVCA cell line = assay: CellTiter-Blue cell viability assay, M41; assay type: cell-based; settings: Homo sapiens; M41 cells, 72 hours, growth/viability
Source text: as §1, §2

PEO4 OVCA cell line = assay: CellTiter-Blue cell viability assay, PEO4; assay type: cell-based; settings: Homo sapiens; PEO4 cells, 72 hours, growth/viability
Source text: as §1, §2

OVCA429 OVCA cell line = assay: CellTiter-Blue cell viability assay, OVCA429; assay type: cell-based; settings: Homo sapiens; OVCA429 cells, 72 hours, growth/viability
Source text: as §1, §2

CHI OVCA cell line = assay: CellTiter-Blue cell viability assay, CHI; assay type: cell-based; settings: Homo sapiens; CHI cells, 72 hours, growth/viability
Source text: as §1, §2

CAOV2 OVCA cell line = assay: CellTiter-Blue cell viability assay, CAOV2; assay type: cell-based; settings: Homo sapiens; CAOV2 cells, 72 hours, growth/viability
Source text: as §1, §2

Tyknu OVCA cell line = assay: CellTiter-Blue cell viability assay, Tyknu; assay type: cell-based; settings: Homo sapiens; Tyknu cells, 72 hours, growth/viability
Source text: as §1, §2

OVCAR10 OVCA cell line = assay: CellTiter-Blue cell viability assay, OVCAR10; assay type: cell-based; settings: Homo sapiens; OVCAR10 cells, 72 hours, growth/viability
Source text: as §1, §2

OVCAR3 OVCA cell line = assay: CellTiter-Blue cell viability assay, OVCAR3; assay type: cell-based; settings: Homo sapiens, OVCAR-3; OVCAR3 cells, 72 hours, growth/viability
Source text: as §1, §2

## Nc1ccn([C@@H]2O[C@H](CO)[C@@H](O)C2(F)F)c(=O)n1 [Gemcitabine, 2′,2′-difluorodeoxycytidine]
FUOV1 OVCA cell line
  IC50: 59400 nM
MCAS OVCA cell line
  IC50: 56400 nM
OVCA432 OVCA cell line
  IC50: 14900 nM
A2780CP OVCA cell line
  IC50: 366 nM
M41CSR OVCA cell line
  IC50: 37.4 nM
Ovary1847 OVCA cell line
  IC50: 865 nM
IGR-OV1 OVCA cell line
  IC50: 531 nM
Dov13 OVCA cell line
  IC50: 6 nM
IMCC3 OVCA cell line
  IC50: 943 nM
C13 OVCA cell line
  IC50: 418 nM
OVCAR5 OVCA cell line
  IC50: 278 nM
TOV-112D OVCA cell line
  IC50: 44500 nM
OVCA433 OVCA cell line
  IC50: 9.9 nM
HeyA8 OVCA cell line
  IC50: 1500 nM
CHIcisR OVCA cell line
  IC50: 23.7 nM
T8 OVCA cell line
  IC50: 256 nM
OVCA420 OVCA cell line
  IC50: 12700 nM
A2008 OVCA cell line
  IC50: 164 nM
OVCAR2 OVCA cell line
  IC50: 22 nM
TyknuCisR OVCA cell line
  IC50: 8.5 nM
TOV-21G OVCA cell line
  IC50: 764 nM
CAOV3 OVCA cell line
  IC50: 2.2 nM
PEO1 OVCA cell line
  IC50: 135 nM
OV90 OVCA cell line
  IC50: 18.9 nM
SK-OV-4 OVCA cell line
  IC50: 3.3 nM
OVCAR8 OVCA cell line
  IC50: 273 nM
SK-OV-3 OVCA cell line
  IC50: 16100 nM
IMCC5 OVCA cell line
  IC50: 105 nM
SK-OV-6 OVCA cell line
  IC50: 3500 nM
BG1 OVCA cell line
  IC50: 30400 nM
A2780S OVCA cell line
  IC50: 51.8 nM
OVCAR4 OVCA cell line
  IC50: 655 nM
OV2008 OVCA cell line
  IC50: 384 nM
[1]
  response rates: up to 19%
M41 OVCA cell line
  IC50: 39.5 nM
PEO4 OVCA cell line
  IC50: 536 nM
OVCA429 OVCA cell line
  IC50: 22.2 nM
CHI OVCA cell line
  IC50: 269 nM
CAOV2 OVCA cell line
  IC50: 3900 nM
Tyknu OVCA cell line
  IC50: 4.6 nM
OVCAR10 OVCA cell line
  IC50: 672 nM
OVCAR3 OVCA cell line
  IC50: 6200 nM
